pIC50: −log10 of the molar value.
Biological target: T1, rat NaP2b (SLC34A2) (Rattus norvegicus, UniProt Q9JJ09)
T1 construct: host or cells: HEK293
T1 sequence (Q9JJ09 1-695): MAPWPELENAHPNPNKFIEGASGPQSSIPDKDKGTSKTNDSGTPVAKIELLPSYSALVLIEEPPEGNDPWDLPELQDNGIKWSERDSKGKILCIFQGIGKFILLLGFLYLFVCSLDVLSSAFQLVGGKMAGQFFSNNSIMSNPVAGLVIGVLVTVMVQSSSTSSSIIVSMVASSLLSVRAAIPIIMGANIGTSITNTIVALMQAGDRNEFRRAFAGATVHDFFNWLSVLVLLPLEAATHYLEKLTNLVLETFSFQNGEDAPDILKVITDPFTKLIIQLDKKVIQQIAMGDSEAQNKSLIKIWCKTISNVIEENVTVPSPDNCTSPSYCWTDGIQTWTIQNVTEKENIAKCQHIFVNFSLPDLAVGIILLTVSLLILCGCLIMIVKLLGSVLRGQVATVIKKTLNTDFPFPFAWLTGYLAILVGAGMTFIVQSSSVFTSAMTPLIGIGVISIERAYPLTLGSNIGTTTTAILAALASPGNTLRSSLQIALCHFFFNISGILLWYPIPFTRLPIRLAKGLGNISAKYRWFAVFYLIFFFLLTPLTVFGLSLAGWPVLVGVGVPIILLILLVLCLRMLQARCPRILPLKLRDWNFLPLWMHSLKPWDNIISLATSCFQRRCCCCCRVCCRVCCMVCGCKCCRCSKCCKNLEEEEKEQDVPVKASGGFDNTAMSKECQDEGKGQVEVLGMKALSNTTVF
Assay: Inhibition of NaP2b-mediated Pi (33P) uptake in transfected HEK293 cells, rat NaP2b
Assay type: cell-based
Conditions: 33P Pi uptake, 0.1 mM phosphate, value given as pIC50 range
Procedure, shortened: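 HEK293 cells were transiently transfected with NaP2b cDNA using Lipofectamine and grown near confluence. Compounds were tested at twelve concentrations from 0.1 nM to 30 uM in duplicate, and 33P-phosphate uptake was counted by scintillation after lysis. Results are expressed as pIC50.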

SMILES	pIC50
CCN(CC)c1ccc(NC(=O)c2cccc(C(=O)N(C)CCO)c2)c(-c2cc(C(=O)N[C@H]3CCCc4ccccc43)ccn2)c1 [Example 194, (S)—N^1-(4-(diethylamino)-2-(4-((1,2,3,4-tetrahydronaphthalen-1-yl)carbamoyl)pyridin-2-yl)phenyl)-N^3-(2-hydroxyethyl)-N^3-methylisophthalamide]	> 6.00
CCN(CC)c1ccc(NC(=O)c2cccc(C(=O)N(C)CCN3CCCN(C(=O)CCOCCOCCOCCOCCOCCOCCOCCOC)CC3)c2)c(-c2cc(C(=O)N[C@H]3CCCc4ccccc43)ccn2)c1 [Example 197, (S)—N^1-(2-(4-(2,5,8,11,14,17,20,23-octaoxahexacosan-26-oyl)-1,4-diazepan-1-yl)ethyl)-N^3-(4-(diethylamino)-2-(4-((1,2,3,4-tetrahydronaphthalen-1-yl)carbamoyl)pyridin-2-yl)phenyl)-N^1-methylisophthalamide]	5.10 to 6.00
COCCOCCOCCOCCOCCOCCOCCN(C)C(=O)[C@@H]1CCCN1CCN(C)C(=O)c1cccc(C(=O)Nc2ccc(N3CCCCC3)cc2-c2cc(C(=O)N[C@H]3CCCc4ccccc43)ccn2)c1 [Example 198, N^1-(2-((S)-2-(2,5,8,11,14,17,20-heptaoxadocosan-22-yl(methyl)carbamoyl)pyrrolidin-1-yl)ethyl)-N^1-methyl-N^3-(4-(piperidin-1-yl)-2-(4-(((S)-1,2,3,4-tetrahydronaphthalen-1-yl)carbamoyl)pyridin-2-yl)phenyl)isophthalamide]	4.50 to 5.00
COCCNC(=O)N1CCN(CCN(C)C(=O)c2cccc(C(=O)Nc3ccc(N4CCCCC4)cc3-c3cc(C(=O)NCc4cccc(C(F)(F)F)c4)ccn3)c2)CC1 [Example 207, N1-(2-(4-((2-methoxyethyl)carbamoyl)piperazin-1-yl)ethyl)-N3-(2-(4-((3-(trifluoromethyl)benzyl)carbamoyl)pyridin-2-yl)-4-(piperidin-1-yl)phenyl)-N1-methylisophthalamide]	4.50 to 5.00
COCCNC(=O)N1CCN(CCN(C)Cc2cccc(C(=O)Nc3ccc(N4CCCCC4)cc3-c3cc(C(=O)NCc4cccc(C(F)(F)F)c4)ccn3)c2)CC1 [Example 208, N-(2-methoxyethyl)-4-(2-(methyl(3-(4-(piperidin-1-yl)-2-(4-(3-(trifluoromethyl)benzylcarbamoyl)pyridin-2-yl)phenylcarbamoyl)benzyl)amino)ethyl)piperazine-1-carboxamide]	4.50 to 5.00
COCCN(CCOC)CCN(C)C(=O)c1cccc(C(=O)Nc2ccc(N3CCCCC3)cc2-c2cc(C(=O)N[C@H]3CCCc4ccccc43)ccn2)c1 [Example 217, (S)—N1-(2-(bis(2-methoxyethyl)amino)ethyl)-N1-methyl-N3-(4-(piperidin-1-yl)-2-(4-(1,2,3,4-tetrahydronaphthalen-1-ylcarbamoyl)pyridin-2-yl)phenyl)isophthalamide]	> 6.00
COCCN(CCOCCOCCOCCC(=O)O)CCN(C)C(=O)c1cccc(C(=O)Nc2ccc(N3CCCCC3)cc2-c2cc(C(=O)N[C@H]3CCCc4ccccc43)ccn2)c1 [Example 221, 5-{2-[N-methyl-1-(3-{[4-(piperidin-1-yl)-2-(4-{[(1S)-1,2,3,4-tetrahydronaphthalen-1-yl]carbamoyl}pyridin-2-yl)phenyl]carbamoyl}phenyl)formamido]ethyl}-2,8,11,14-tetraoxa-5-azaheptadecan-17-oic acid]	4.50 to 5.00
CCN(CC)c1ccc(NC(=O)c2cccc(C(=O)N(C)CCN(C)CCOCCOCCOCCNC(N)=O)c2)c(-c2cc(C(=O)N[C@H]3CCCc4ccccc43)ccn2)c1 [Example 224, (S)—N1-(1-amino-14-methyl-1-oxo-5,8,11-trioxa-2,14-diazahexadecan-16-yl)-N3-(4-(diethylamino)-2-(4-(1,2,3,4-tetrahydronaphthalen-1-ylcarbamoyl)pyridin-2-yl)phenyl)-N1-methylisophthalamide]	5.10 to 6.00
CCN(CC)c1ccc(NC(=O)c2cccc(C(=O)N(C)CCN(C)CCOCCOCCOCCNC(=O)N(CCO)CCO)c2)c(-c2cc(C(=O)N[C@H]3CCCc4ccccc43)ccn2)c1 [Example 225, (S)—N1-(4-(diethylamino)-2-(4-(1,2,3,4-tetrahydronaphthalen-1-ylcarbamoyl)pyridin-2-yl)phenyl)-N3-(1-hydroxy-3-(2-hydroxyethyl)-17-methyl-4-oxo-8,11,14-trioxa-3,5,17-triazanonadecan-19-yl)-N3-methylisophthalamide]	4.50 to 5.00
COCCOCCOCCOCCOCCOCCOCCOCC(=O)N1CCN(CCN(C)C(=O)c2cccc(C(=O)Nc3ccc(N4CCCCC4)cc3-c3cc(C(=O)N[C@H]4CCCc5ccccc54)ccn3)c2)CC1 [Example 228, (S)—N1-(2-(4-2,5,8,11,14,17,20,23-octaoxapentacosanepiperazin-1-yl)ethyl)-N1-methyl-N3-(4-(piperidin-1-yl)-2-(4-(1,2,3,4-tetrahydronaphthalen-1-ylcarbamoyl)pyridin-2-yl)phenyl)isophthalamide]	5.10 to 6.00
CN(CCN1C[C@H](O)C[C@H]1C(=O)N(C)CCOCCOCCOCCC(=O)OC(C)(C)C)C(=O)c1cccc(C(=O)Nc2ccc(N3CCCCC3)cc2-c2cc(C(=O)N[C@H]3CCCc4ccccc43)ccn2)c1 [Example 241]	5.10 to 6.00
CN(CCN1CCOCC1)C(=O)Nc1cccc(C(=O)Nc2ccc(N3CCCCC3)cc2-c2cc(C(=O)N[C@H]3CCCc4ccccc43)ccn2)c1 [Example 245, (S)-2-(2-(3-(3-methyl-3-(2-morpholinoethyl)ureido)benzamido)-5-(piperidin-1-yl)phenyl)-N-(1,2,3,4-tetrahydronaphthalen-1-yl)isonicotinamide]	4.50 to 5.00
CCN(CC)c1ccc(NC(=O)c2cccc(CCCOCCOCCOCCOCCC(=O)N3CCN(CCOCCOCCOCCOCCOCCOCCOC)C(=O)C3)c2)c(-c2cc(C(=O)NCc3cccc(C(F)(F)F)c3)ccn2)c1 [Example 258, 2-(2-(3-(16-(4-(2,5,8,11,14,17,20-heptaoxadocosan-22-yl)-3-oxopiperazin-1-yl)-16-oxo-4,7,10,13-tetraoxahexadecyl)benzamido)-5-(diethylamino)phenyl)-N-(3-(trifluoromethyl)benzyl)isonicotinamide]	5.10 to 6.00
CCN(CC)c1ccc(NC(=O)c2cccc(CCCOCCOCCOCCOCCC(=O)N(C)CCOCCOCCOCCOCCOCCOCCOC)c2)c(-c2cc(C(=O)NCc3cccc(C(F)(F)F)c3)ccn2)c1 [Example 259, 2-(5-(diethylamino)-2-(3-(23-methyl-24-oxo-2,5,8,11,14,17,20,27,30,33,36-undecaoxa-23-azanonatriacontan-39-yl)benzamido)phenyl)-N-(3-(trifluoromethyl)benzyl)isonicotinamide]	5.10 to 6.00
CCN(CC)c1ccc(NC(=O)c2cccc(CCCOCCOCCOCCOCCC(=O)NCCOCCOCCOCCOCCOCCOCCOC)c2)c(-c2cc(C(=O)NCc3cccc(C(F)(F)F)c3)ccn2)c1 [Example 260, 2-(5-(diethylamino)-2-(3-(24-oxo-2,5,8,11,17,20,27,30,33,36-undecaoxa-23-azanonatriacontan-39-yl)benzamido)phenyl)-N-(3-(trifluoromethyl)benzyl)isonicotinamide]	5.10 to 6.00
CCN(CC)c1ccc(NC(=O)c2cccc(CCCOCCOCCOCCOCCN)c2)c(-c2cc(C(=O)NCc3cccc(C(F)(F)F)c3)ccn2)c1 [Example 270, 2-(2-(3-(1-amino-3,6,9,12-tetraoxapentadecan-15-yl)benzamido)-5-(diethylamino)phenyl)-N-(3-(trifluoromethyl)benzyl)isonicotinamide]	5.10 to 6.00

Source: patent US20140023611A1 (priority 2010, published 2014)
